Measurements from paper PMC4490784, “Compensatory induction of MYC expression by sustained CDK9 inhibition via a BRD4-dependent mechanism” (eLife, 2015).

Assays:
Experiment in all cases: KINOMEscan binding assay
[1] = biological target: T1, TNNI3K (Homo sapiens, UniProt Q59H18); settings: read-out: % Retention on Solid Support
T1 construct: purchased DiscoveRx KINOMEscan
In short: (§1)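 Active site-directed competition binding measured kinase engagement within a panel of over 400 kinases. i-CDK9 was tested at two concentrations, 1 and 10 µM.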

[2] = biological target: T2, PCTK3 (Homo sapiens, UniProt Q07002); settings: read-out: % Retention on Solid Support
T2 construct: purchased DiscoveRx KINOMEscan
In short: as §1

[3] = biological target: T3, MEK4 (Homo sapiens, UniProt P45985); settings: read-out: % Retention on Solid Support
T3 construct: purchased DiscoveRx KINOMEscan
In short: as §1

[4] = biological target: T4, PIK3CA (Homo sapiens, UniProt P42336); settings: read-out: % Retention on Solid Support
T4 construct: purchased DiscoveRx KINOMEscan
In short: as §1

[5] = biological target: T5, ERK2 (Homo sapiens, UniProt P28482); settings: read-out: % Retention on Solid Support
T5 construct: purchased DiscoveRx KINOMEscan
In short: as §1

[6] = biological target: T6, TRKB (Homo sapiens, UniProt Q16620); settings: read-out: % Retention on Solid Support
T6 construct: purchased DiscoveRx KINOMEscan
T6 sequence (Q16620 32-822): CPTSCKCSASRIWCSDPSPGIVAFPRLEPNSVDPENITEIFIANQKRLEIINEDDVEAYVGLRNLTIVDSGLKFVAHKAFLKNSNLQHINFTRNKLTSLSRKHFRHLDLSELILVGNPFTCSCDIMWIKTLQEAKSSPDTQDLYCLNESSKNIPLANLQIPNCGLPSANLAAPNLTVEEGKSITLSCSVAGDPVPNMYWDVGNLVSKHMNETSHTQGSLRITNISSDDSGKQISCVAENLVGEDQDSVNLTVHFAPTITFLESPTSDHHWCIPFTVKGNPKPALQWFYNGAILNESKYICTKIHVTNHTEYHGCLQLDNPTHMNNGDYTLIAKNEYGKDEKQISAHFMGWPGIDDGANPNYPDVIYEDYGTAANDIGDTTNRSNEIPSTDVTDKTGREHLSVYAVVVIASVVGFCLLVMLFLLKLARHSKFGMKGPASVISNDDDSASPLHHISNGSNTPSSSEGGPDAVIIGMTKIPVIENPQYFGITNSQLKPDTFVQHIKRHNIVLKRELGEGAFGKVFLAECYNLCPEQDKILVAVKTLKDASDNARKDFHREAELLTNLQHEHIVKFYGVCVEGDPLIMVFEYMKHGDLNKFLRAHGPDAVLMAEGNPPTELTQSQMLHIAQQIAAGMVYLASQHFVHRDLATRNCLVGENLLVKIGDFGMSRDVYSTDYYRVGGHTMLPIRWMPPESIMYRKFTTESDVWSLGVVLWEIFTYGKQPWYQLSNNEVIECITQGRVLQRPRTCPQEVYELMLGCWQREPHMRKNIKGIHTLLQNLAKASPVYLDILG
In short: as §1

[7] = biological target: T7, CSNK1G1 (Homo sapiens, UniProt Q9HCP0)
T7 construct: purchased DiscoveRx KINOMEscan
In short: as §1

[8] = biological target: T8, EGFR(L747-E749del, A750P) (Homo sapiens, UniProt P00533, A750P/DEL747-749)
T8 construct: purchased DiscoveRx KINOMEscan
In short: as §1

[9] = biological target: T9, PRP4 (Homo sapiens, UniProt Q13523); settings: read-out: % Retention on Solid Support
T9 construct: purchased DiscoveRx KINOMEscan
T9 sequence (Q13523 whole entry): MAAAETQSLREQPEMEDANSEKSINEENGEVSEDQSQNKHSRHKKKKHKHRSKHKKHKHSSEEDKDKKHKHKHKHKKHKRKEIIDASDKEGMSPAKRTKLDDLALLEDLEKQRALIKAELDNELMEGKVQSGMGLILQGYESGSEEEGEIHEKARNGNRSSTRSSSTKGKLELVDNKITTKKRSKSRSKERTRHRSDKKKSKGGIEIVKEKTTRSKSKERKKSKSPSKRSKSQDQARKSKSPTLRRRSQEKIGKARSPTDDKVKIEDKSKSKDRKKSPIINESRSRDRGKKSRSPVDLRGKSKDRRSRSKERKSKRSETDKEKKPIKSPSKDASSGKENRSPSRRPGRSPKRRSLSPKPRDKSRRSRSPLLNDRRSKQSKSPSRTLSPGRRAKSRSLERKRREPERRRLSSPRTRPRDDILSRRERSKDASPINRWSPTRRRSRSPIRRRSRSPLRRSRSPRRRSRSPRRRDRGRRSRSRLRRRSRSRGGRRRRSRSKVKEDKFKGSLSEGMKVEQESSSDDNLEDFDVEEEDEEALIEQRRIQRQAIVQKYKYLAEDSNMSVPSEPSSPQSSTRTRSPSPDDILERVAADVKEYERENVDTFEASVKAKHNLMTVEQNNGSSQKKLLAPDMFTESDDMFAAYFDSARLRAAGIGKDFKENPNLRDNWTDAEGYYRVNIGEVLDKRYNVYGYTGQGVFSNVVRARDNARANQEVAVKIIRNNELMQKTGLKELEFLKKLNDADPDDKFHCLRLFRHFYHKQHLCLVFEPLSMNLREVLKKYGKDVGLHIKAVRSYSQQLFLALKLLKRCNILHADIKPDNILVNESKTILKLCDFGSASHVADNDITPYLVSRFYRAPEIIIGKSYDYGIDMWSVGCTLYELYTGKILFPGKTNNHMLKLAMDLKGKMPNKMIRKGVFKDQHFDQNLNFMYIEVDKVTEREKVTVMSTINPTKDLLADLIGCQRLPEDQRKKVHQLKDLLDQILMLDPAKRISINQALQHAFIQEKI
In short: as §1

[10] = biological target: T10, LRRK2 (Homo sapiens, UniProt Q5S007); settings: 1 µM i-CDK9; read-out: % Retention on Solid Support
T10 construct: purchased DiscoveRx KINOMEscan
In short: as §1

[11] = biological target: T11, KIT (Homo sapiens, UniProt P10721); settings: read-out: % Retention on Solid Support
T11 construct: purchased DiscoveRx KINOMEscan
In short: as §1

[12] = biological target: T12, PFPK5(P.falciparum) (Plasmodium falciparum, UniProt P61075); settings: 1 µM i-CDK9; read-out: % Retention on Solid Support
T12 construct: purchased DiscoveRx KINOMEscan
In short: as §1

[13] = biological target: T13, DMPK2 (Homo sapiens, UniProt Q6DT37); settings: read-out: % Retention on Solid Support
T13 construct: purchased DiscoveRx KINOMEscan
In short: as §1

[14] = biological target: T14, INSRR (Homo sapiens, UniProt P14616); settings: read-out: % Retention on Solid Support
T14 construct: purchased DiscoveRx KINOMEscan
In short: as §1

[15] = biological target: T15, CHEK2 (Homo sapiens, UniProt O96017); settings: read-out: % Retention on Solid Support
T15 construct: purchased DiscoveRx KINOMEscan
T15 sequence (O96017 whole entry): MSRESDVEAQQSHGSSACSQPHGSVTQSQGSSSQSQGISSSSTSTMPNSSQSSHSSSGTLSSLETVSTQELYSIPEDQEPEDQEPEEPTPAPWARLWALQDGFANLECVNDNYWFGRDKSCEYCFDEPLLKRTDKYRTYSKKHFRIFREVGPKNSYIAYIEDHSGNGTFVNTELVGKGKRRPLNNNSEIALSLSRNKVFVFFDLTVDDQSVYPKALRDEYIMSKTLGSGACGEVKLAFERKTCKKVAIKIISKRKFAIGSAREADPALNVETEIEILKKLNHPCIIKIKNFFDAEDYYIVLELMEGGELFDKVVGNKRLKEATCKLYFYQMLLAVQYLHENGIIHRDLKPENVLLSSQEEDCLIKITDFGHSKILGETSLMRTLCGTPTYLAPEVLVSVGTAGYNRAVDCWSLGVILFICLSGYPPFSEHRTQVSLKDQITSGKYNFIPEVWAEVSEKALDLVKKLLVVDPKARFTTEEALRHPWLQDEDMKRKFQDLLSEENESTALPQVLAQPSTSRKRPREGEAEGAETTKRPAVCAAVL
In short: as §1

[16] = biological target: T16, EGFR(T790M) (Homo sapiens, UniProt P00533, T790M); settings: 1 µM i-CDK9
T16 construct: purchased DiscoveRx KINOMEscan
In short: as §1

[17] = biological target: T17, HIPK1 (Homo sapiens, UniProt Q86Z02); settings: read-out: % Retention on Solid Support
T17 construct: purchased DiscoveRx KINOMEscan
T17 sequence (Q86Z02 whole entry): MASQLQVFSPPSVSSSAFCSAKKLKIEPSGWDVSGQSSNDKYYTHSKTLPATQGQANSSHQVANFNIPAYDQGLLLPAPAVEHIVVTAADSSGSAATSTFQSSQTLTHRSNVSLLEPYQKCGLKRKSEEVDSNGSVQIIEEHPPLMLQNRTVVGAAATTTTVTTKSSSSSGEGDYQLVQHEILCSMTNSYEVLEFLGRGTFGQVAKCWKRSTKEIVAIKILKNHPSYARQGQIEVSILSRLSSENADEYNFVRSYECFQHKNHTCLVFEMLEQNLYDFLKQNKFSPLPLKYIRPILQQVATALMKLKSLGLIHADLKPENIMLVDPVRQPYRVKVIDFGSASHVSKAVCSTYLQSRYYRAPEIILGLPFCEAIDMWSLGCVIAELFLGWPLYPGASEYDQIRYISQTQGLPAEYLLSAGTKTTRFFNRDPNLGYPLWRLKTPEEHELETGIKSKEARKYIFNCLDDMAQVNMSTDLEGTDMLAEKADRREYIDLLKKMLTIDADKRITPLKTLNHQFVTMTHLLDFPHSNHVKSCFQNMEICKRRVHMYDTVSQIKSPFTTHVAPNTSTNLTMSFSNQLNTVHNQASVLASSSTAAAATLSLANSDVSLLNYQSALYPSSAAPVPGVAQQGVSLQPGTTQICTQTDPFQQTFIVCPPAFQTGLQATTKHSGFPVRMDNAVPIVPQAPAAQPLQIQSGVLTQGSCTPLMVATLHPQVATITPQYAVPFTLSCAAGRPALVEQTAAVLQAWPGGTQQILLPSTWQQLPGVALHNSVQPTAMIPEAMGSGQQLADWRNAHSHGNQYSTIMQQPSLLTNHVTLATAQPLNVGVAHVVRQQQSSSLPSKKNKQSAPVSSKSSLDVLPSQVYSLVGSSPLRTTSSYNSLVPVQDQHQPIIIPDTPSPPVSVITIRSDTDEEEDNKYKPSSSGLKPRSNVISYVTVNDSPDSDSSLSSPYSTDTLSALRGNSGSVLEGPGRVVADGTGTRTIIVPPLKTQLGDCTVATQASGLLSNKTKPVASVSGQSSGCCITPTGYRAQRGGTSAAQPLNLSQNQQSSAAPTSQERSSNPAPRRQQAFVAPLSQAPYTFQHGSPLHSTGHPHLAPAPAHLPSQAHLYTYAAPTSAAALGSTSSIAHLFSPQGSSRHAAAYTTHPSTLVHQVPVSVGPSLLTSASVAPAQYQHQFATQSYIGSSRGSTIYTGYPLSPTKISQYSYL
In short: as §1

[18] = biological target: T18, ADCK4 (Homo sapiens, UniProt Q96D53); settings: read-out: % Retention on Solid Support
T18 construct: purchased DiscoveRx KINOMEscan
In short: as §1

[19] = biological target: T19, ABL1-nonphosphorylated (Homo sapiens, UniProt P00519); settings: read-out: % Retention on Solid Support
T19 construct: purchased DiscoveRx KINOMEscan
T19 sequence (P00519 whole entry): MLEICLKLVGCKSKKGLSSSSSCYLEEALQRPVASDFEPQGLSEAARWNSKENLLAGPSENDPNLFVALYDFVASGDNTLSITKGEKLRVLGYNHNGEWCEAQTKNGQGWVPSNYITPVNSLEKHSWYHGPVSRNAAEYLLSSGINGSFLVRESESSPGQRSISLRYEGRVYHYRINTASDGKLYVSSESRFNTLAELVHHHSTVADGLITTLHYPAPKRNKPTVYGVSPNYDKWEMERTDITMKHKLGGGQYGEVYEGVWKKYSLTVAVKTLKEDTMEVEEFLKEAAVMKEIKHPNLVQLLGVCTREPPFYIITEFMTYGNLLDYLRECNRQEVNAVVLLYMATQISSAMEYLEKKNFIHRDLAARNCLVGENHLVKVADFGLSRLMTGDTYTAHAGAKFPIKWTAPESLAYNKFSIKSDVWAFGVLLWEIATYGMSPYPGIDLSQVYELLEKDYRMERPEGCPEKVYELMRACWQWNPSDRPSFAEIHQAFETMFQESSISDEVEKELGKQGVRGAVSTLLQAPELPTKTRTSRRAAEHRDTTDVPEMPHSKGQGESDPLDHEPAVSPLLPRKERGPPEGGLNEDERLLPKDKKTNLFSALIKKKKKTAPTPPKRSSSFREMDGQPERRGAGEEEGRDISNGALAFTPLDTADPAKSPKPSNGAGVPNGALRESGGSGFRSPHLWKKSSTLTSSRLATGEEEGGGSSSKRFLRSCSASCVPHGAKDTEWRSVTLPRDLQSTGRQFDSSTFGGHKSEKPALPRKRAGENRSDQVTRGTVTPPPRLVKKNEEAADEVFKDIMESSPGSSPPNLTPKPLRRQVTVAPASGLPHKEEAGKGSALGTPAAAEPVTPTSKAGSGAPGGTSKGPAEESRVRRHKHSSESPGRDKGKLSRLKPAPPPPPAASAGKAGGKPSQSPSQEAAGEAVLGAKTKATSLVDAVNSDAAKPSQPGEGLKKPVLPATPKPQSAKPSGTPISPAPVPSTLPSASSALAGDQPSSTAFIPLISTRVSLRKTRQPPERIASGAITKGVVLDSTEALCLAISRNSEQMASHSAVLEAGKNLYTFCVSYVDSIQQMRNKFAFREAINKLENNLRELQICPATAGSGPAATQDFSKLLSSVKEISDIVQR
In short: as §1

[20] = biological target: T20, STK39 (Homo sapiens, UniProt Q9UEW8); settings: read-out: % Retention on Solid Support
T20 construct: purchased DiscoveRx KINOMEscan
In short: as §1

[21] = biological target: T21, MST4 (Homo sapiens, UniProt Q9P289); settings: read-out: % Retention on Solid Support
T21 construct: purchased DiscoveRx KINOMEscan
In short: as §1

[22] = biological target: T22, HIPK3 (Homo sapiens, UniProt Q9H422); settings: read-out: % Retention on Solid Support
T22 construct: purchased DiscoveRx KINOMEscan
In short: as §1

[23] = biological target: T23, PDGFRA (Homo sapiens, UniProt P16234); settings: read-out: % Retention on Solid Support
T23 construct: purchased DiscoveRx KINOMEscan
In short: as §1

[24] = biological target: T24, YANK2 (Homo sapiens, UniProt Q9NY57); settings: read-out: % Retention on Solid Support
T24 construct: purchased DiscoveRx KINOMEscan
In short: as §1

[25] = biological target: T25, CDK4-cyclinD3 (Homo sapiens, UniProt P11802); settings: 1 µM i-CDK9; read-out: % Retention on Solid Support
T25 construct: purchased DiscoveRx KINOMEscan
In short: as §1

[26] = biological target: T26, RIOK3 (Homo sapiens, UniProt O14730); settings: read-out: % Retention on Solid Support
T26 construct: purchased DiscoveRx KINOMEscan
In short: as §1

[27] = biological target: T27, ABL1(F317L)-nonphosphorylated (Homo sapiens, UniProt P00519, F317L); settings: read-out: % Retention on Solid Support
T27 construct: purchased DiscoveRx KINOMEscan
T27 sequence (P00519 whole entry F317L): as the sequence (P00519 whole entry) above, with F317L counted along it
In short: as §1

[28] = biological target: T28, MAST1 (Homo sapiens, UniProt Q9Y2H9); settings: read-out: % Retention on Solid Support
T28 construct: purchased DiscoveRx KINOMEscan
In short: as §1

[29] = biological target: T29, PIM3 (Homo sapiens, UniProt Q86V86); settings: read-out: % Retention on Solid Support
T29 construct: purchased DiscoveRx KINOMEscan
In short: as §1

[30] = biological target: T30, NDR2 (Homo sapiens, UniProt Q9Y2H1); settings: read-out: % Retention on Solid Support
T30 construct: purchased DiscoveRx KINOMEscan
In short: as §1

**Q.** What does the source list for `N[C@H]1CC[C@H](Nc2cc(-c3cccc(NCc4cccc(F)c4)n3)c(Cl)cn2)CC1` [i-CDK9, N2′-(trans-4-aminocyclohexyl)-5′-chloro-N6-(3-fluorobenzyl)-2,4′-bipyridine-2′,6-diamine]?
**A.** remaining binding at 1 µM ([1]; 1 µM i-CDK9): 81%; remaining binding at 10 µM ([1]; 10 µM i-CDK9): 100%; remaining binding at 1 µM ([2]; 1 µM i-CDK9): 33%; remaining binding at 10 µM ([2]; 10 µM i-CDK9): 0.15%; remaining binding at 1 µM ([3]; 1 µM i-CDK9): 39%; remaining binding at 10 µM ([3]; 10 µM i-CDK9): 97%; remaining binding at 1 µM ([4]; 1 µM i-CDK9): 100%; remaining binding at 10 µM ([4]; 10 µM i-CDK9): 100%; remaining binding at 1 µM ([5]; 1 µM i-CDK9): 100%; remaining binding at 10 µM ([5]; 10 µM i-CDK9): 100%; remaining binding at 1 µM ([6]; 1 µM i-CDK9): 100%; remaining binding at 10 µM ([6]; 10 µM i-CDK9): 100%; % Retention on Solid Support ([7]; 1 µM i-CDK9): 81%; % Retention on Solid Support ([7]; 10 µM i-CDK9): 93%; % Retention on Solid Support ([8]; 1 µM i-CDK9): 46%; % Retention on Solid Support ([8]; 10 µM i-CDK9): 85%; remaining binding at 1 µM ([9]; 1 µM i-CDK9): 14%; remaining binding at 10 µM ([9]; 10 µM i-CDK9): 100%; remaining binding at 1 µM [10]: 100%; remaining binding at 1 µM ([11]; 1 µM i-CDK9): 91%; remaining binding at 10 µM ([11]; 10 µM i-CDK9): 100%; remaining binding at 1 µM [12]: 100%; remaining binding at 1 µM ([13]; 1 µM i-CDK9): 100%; remaining binding at 10 µM ([13]; 10 µM i-CDK9): 100%; remaining binding at 1 µM ([14]; 1 µM i-CDK9): 92%; remaining binding at 10 µM ([14]; 10 µM i-CDK9): 97%; remaining binding at 1 µM ([15]; 1 µM i-CDK9): 98%; remaining binding at 10 µM ([15]; 10 µM i-CDK9): 100%; % Retention on Solid Support [16]: 100%; remaining binding at 1 µM ([17]; 1 µM i-CDK9): 44%; remaining binding at 10 µM ([17]; 10 µM i-CDK9): 29%; remaining binding at 1 µM ([18]; 1 µM i-CDK9): 99%; remaining binding at 10 µM ([18]; 10 µM i-CDK9): 48%; remaining binding at 1 µM ([19]; 1 µM i-CDK9): 81%; remaining binding at 10 µM ([19]; 10 µM i-CDK9): 100%; remaining binding at 1 µM ([20]; 1 µM i-CDK9): 100%; remaining binding at 10 µM ([20]; 10 µM i-CDK9): 77%; remaining binding at 1 µM ([21]; 1 µM i-CDK9): 100%; remaining binding at 10 µM ([21]; 10 µM i-CDK9): 100%; remaining binding at 1 µM ([22]; 1 µM i-CDK9): 100%; remaining binding at 10 µM ([22]; 10 µM i-CDK9): 89%; remaining binding at 1 µM ([23]; 1 µM i-CDK9): 59%; remaining binding at 10 µM ([23]; 10 µM i-CDK9): 88%; remaining binding at 1 µM ([24]; 1 µM i-CDK9): 90%; remaining binding at 10 µM ([24]; 10 µM i-CDK9): 100%; remaining binding at 1 µM [25]: 100%; remaining binding at 1 µM ([26]; 1 µM i-CDK9): 86%; remaining binding at 10 µM ([26]; 10 µM i-CDK9): 73%; remaining binding at 1 µM ([27]; 1 µM i-CDK9): 100%; remaining binding at 10 µM ([27]; 10 µM i-CDK9): 91%; remaining binding at 1 µM ([28]; 1 µM i-CDK9): 100%; remaining binding at 10 µM ([28]; 10 µM i-CDK9): 82%; remaining binding at 1 µM ([29]; 1 µM i-CDK9): 100%; remaining binding at 10 µM ([29]; 10 µM i-CDK9): 23%; remaining binding at 1 µM ([30]; 1 µM i-CDK9): 95%; remaining binding at 10 µM ([30]; 10 µM i-CDK9): 100%
